From US7067506B2, “Compounds useful for inhibiting Chk1” (ICOS Corporation, priority 2001, dated 2006) come the findings set out here.

Each structure is given as a SMILES string.

Data set [1] relates to Colo205 and HT29 xenograft tumors. As to the kind of experiment: Colon tumor xenograft model. The data set is classed as in vivo, Balb/c (nu/nu) mice. The settings on record: i.p. 50, 100 or 150 mg/kg; tumor weight by calipers. Here is the method:
To test the ability of the Chk1 inhibitors to enhance the killing of tumors by 5-FU in mice, xenograft tumor models using colon tumor cell lines were established. Colo205 and HT29 cells (human colon carcinoma) were used to propagate xenograft tumors in 6-8 week old female […] Balb/c (nu/nu) mice. Mice were maintained in a laminar airflow cabinet under pathogen-free conditions and fed sterile food and water ad libitum. Cell lines were grown to subconfluence in RPMI 1640 media supplemented with 10% FBS, 100 U/mL penicillin, 100 μg/mL streptomycin, and 1.5 mM L-glutamine in a 5% CO2 humidified environment. Single cell suspensions were prepared in CMF-PBS, and cell concentration adjusted to 1×10^8 cells/mL. Mice were inoculated subcutaneously (s.c). on the right flank or right leg with a total of 1×10^7 cells (100 μL).
Mice were randomized (5 mice/group) into four treatment groups and used when tumors reached a weight of 75-100 mg (usually 7-11 days post-inoculation). Tumors were measured with vernier calipers and tumor weights were estimated using the empirically derived formula: tumor weight (mg)=tumor length (mm)×tumor width (mm)^2/3.3. Treatment consisted of i) 100 μL intraperitoneal (i.p). injection of 5-FU at 50 mg/kg, 100 mg/kg, or 150 mg/kg. […] Tumor size was monitored every other day for the duration of the experiment.

Data set [2] concerns human tumor cell lines. Briefly: Enhancement of cell killing by chemotherapeutic drugs (3H-thymidine uptake). The data set is classed as cell-based. Here is the method:
To test the hypothesis that inhibition of Chk1 potentiates the killing effect of DNA-damaging agents, cells were incubated in the presence of selective Chk1 inhibitors and either irradiation or chemical DNA-damaging agents. Cells plated at a density of 1000-2000 per well in 96-well microtitre plates were grown in RMPI 1640 containing 10% FBS, 100 U/mL penicillin and 100 μg/mL streptomycin for 18 hours at 37° C. in a humidified incubator with 5% CO2. Cells tested included HeLa, ACHN, 786-0, HCT116, SW620, HT29, Colo205, SK-MEL-5, SK-MEL-28, A549, H322, OVCAR-3, SK-OV-3, MDA-MB-231, MCF-7, PC-3, HL-60, K562, and MOLT4. All cell line designations refer to human cell lines and refer to the following:
Cells were treated with media containing chemotherapeutic drugs alone or chemotherapeutic drugs and Compounds 12 and 29. Cells were incubated for approximately 5 days before growth was measured by determination of levels of ^3H-thymidine uptake. Chemotherapeutic drugs included etoposide, doxorubicin, cisplatin, chlorambucil, 5-fluorouracil (5-FU). The drug concentration necessary to inhibit cell growth to 90% of untreated control cells was defined as the GL90. At concentrations less than 100 μM, Compounds 12 and 29 enhanced the killing of 5-FU from 2- to 10-fold.
Compounds 2 and 12 were tested with additional antimetabolites, including methotrexate, hydroxyurea, 2-chloroadenosine, fludarabine, azacytidine, and gemcitibine for an ability to enhance killing of the agents.

As a reminder, the melting point is the temperature, or range, at which the solid turns liquid. Turning to `COc1cc(CN(C)Cc2ccccc2)ccc1NC(=O)Nc1cnc(C)cn1` [Compound 340, 1-{4-[(Benzyl-methyl-amino)-methyl]-2-methoxy-phenyl}-3-(5-methyl-pyrazin-2-yl)-urea], the melting point fell in the range of 142 to 143 °C.
Consider `O=c1[nH]cc(F)c(=O)[nH]1` [Compound 5-FU, 5-fluorouracil], for which, in data set [1], the tumor growth result is recorded as “dose-dependent delay in tumor growth”.
As for `COc1cc(CN)ccc1NC(=O)Nc1cnc(C)cn1` [Compound 342, 1-(4-Aminomethyl-2-methoxy-phenyl)-3-(5-methyl-pyrazin-2-yl)-urea], the melting point was in the range of 168 to 169 °C.
Regarding `COc1cc(NC(=O)CCNC2CCCC2)ccc1NC(=O)Nc1cnccn1` [Compound 2, 3-cyclopentylamino-N-[3-methoxy-4-(3-pyrazin-2-yl-ureido)phenyl]-propionamide], the “enhancement of killing of cells to 5-azacytidine” value in data set [2] (combination with 5-azacytidine) was “enhance the killing of cells”. Moreover, in data set [2] (combination with fludarabine), the “enhancement of killing of cells to fludarabine” value is “enhance the killing of cells”. In addition, in data set [2] (combination with hydroxyurea), the “enhancement of killing of cells to hydroxyurea” value is “enhance the killing of cells”. In data set [2] (combination with methotrexate), the “enhancement of killing of cells to methotrexate” value is “enhance the killing of cells”.
